Experimental data taken from ChEMBL document CHEMBL1201862, “PubChem BioAssay data set” (2004).
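Cells were grown in 96-well plates and exposed to each compound for 48 hours at five concentrations; endpoints were interpolated linearly between bracketing concentrations, or set to the highest concentration if not reached. At the GI50, growth is halved.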 Activity calls are given as the source filed them. Rule as the data show it: active = GI50 up to about 1.1 µM and inactive = higher.

Legend:
Test in all cases: DTP human tumour cell line panel, 48 h
[1] = test system: MOLT-4
[2] = test system: IGROV-1
[3] = test system: EKVX
[4] = test system: BT-549
[5] = test system: KM-20L2
[6] = test system: NCI-H522
[7] = test system: OVCAR-3
[8] = test system: OVCAR-8
[9] = test system: HOP-92
[10] = test system: HT-29
[11] = test system: SK-MEL-5
[12] = test system: ACHN
[13] = test system: M14
[14] = test system: CAKI-1
[15] = test system: TK-10
[16] = test system: LOX IMVI
[17] = test system: UACC-257
[18] = test system: SK-OV-3
[19] = test system: SN12C
[20] = test system: SK-MEL-2
[21] = test system: SW-620
[22] = test system: RXF 631
[23] = test system: T47D
[24] = test system: CCRF-CEM
[25] = test system: U-251
[26] = test system: HCC 2998
[27] = test system: HCT-15
[28] = test system: UACC-62
[29] = test system: NCI-H460
[30] = test system: NCI/ADR-RES
[31] = test system: MDA-N
[32] = test system: OVCAR-4
[33] = test system: MDA-MB-435
[34] = test system: HOP-18
[35] = test system: A549
[36] = test system: Hs-578T
[37] = test system: PC-3
[38] = test system: MCF7
[39] = test system: MDA-MB-231
[40] = test system: RPMI-8226
[41] = test system: SK-MEL-28
[42] = test system: UO-31
[43] = test system: DMS-273
[44] = test system: SF-295
[45] = test system: RXF 393
[46] = test system: NCI-H226
[47] = test system: SNB-19
[48] = test system: NCI-H23
[49] = test system: SNB-75
[50] = test system: XF498
[51] = test system: K562
[52] = test system: KM12
[53] = test system: SR
[54] = test system: DU-145
[55] = test system: DMS-114
[56] = test system: HOP-62
[57] = test system: SNB-78
[58] = test system: SF-539
[59] = test system: Malme-3M
[60] = test system: LXFL 529
[61] = test system: COLO 205
[62] = test system: DLD-1
[63] = test system: HCT-116
[64] = test system: 786-0
[65] = test system: A498
[66] = test system: OVCAR-5
[67] = test system: SF-268
[68] = test system: M19-MEL
[69] = test system: HL-60

Measured: GI50

CN1CCN(C)C12C=c1ccccc1=CC21CC1
inactive: [1] 21.6 µM | [2] 68.7 µM | [3] > 95.9 µM | [4] 41 µM | [5] 27.3 µM | [6] 24.5 µM | [7] 62.1 µM | [8] 53.5 µM | [9] 28.7 µM | [10] 17.2 µM | [11] 23.2 µM | [12] 74.8 µM | [13] 18.6 µM | [14] 74.1 µM | [15] 66.7 µM | [16] 34.6 µM | [17] 23.7 µM | [18] > 92.9 µM | [19] 81.1 µM | [20] 24.3 µM | [21] 22.2 µM | [22] 53.6 µM | [23] 45.1 µM | [24] 24.2 µM | [25] 37.8 µM | [26] 16.3 µM | [28] 18.6 µM | [29] 30.8 µM | [30] > 68.2 µM | [31] 27.4 µM | [32] 71.3 µM | [33] 22.1 µM | [34] > 75 µM | [35] > 91.4 µM | [36] 21.9 µM | [37] 32.3 µM | [38] 35.4 µM | [39] 38.4 µM | [40] 30 µM | [41] 20.7 µM | [42] 40.9 µM | [43] 57 µM | [44] > 77.6 µM | [45] 55.5 µM | [46] > 100 µM | [47] > 83.8 µM | [48] > 100 µM | [49] 45.6 µM | [50] 23.9 µM | [51] 22.8 µM | [52] 29 µM | [53] 25.3 µM | [54] > 100 µM | [55] 18.2 µM | [56] > 91.4 µM | [57] > 72.4 µM | [58] 37.9 µM | [59] 28.5 µM | [60] 17.1 µM | [61] 15.7 µM | [62] 26.4 µM | [63] 25.1 µM | [64] 54 µM | [65] > 100 µM | [66] > 100 µM | [67] 29.7 µM | [68] 19.3 µM | [69] 3.02 µM
32.8 µM: [27]

COc1cc(C)c(C)c(OC(=O)c2c(C)c(C)c(OC)c(C)c2OC)c1C
inactive: [1] 9.31 µM | [2] 8.67 µM | [3] 15.3 µM | [5] 4.17 µM | [6] 1.9 µM | [7] 2.02 µM | [8] 19.5 µM | [9] 7.19 µM | [10] 3.85 µM | [11] 5.02 µM | [12] 13.4 µM | [13] 6.75 µM | [14] 7.26 µM | [15] 25.6 µM | [16] 4.75 µM | [17] 17.8 µM | [18] 7.19 µM | [19] 15.7 µM | [20] 5.04 µM | [21] 3.86 µM | [22] 10.3 µM | [24] 13.2 µM | [25] 3.74 µM | [26] 13.8 µM | [28] 6.71 µM | [29] 3.98 µM | [32] 10.3 µM | [34] 10.4 µM | [35] 4.11 µM | [40] 13.6 µM | [41] 20.4 µM | [42] 32.4 µM | [43] 3.94 µM | [44] 3.92 µM | [45] 13 µM | [46] 15.7 µM | [47] 15.4 µM | [48] 10.4 µM | [49] 4.04 µM | [50] 12.2 µM | [51] 3.83 µM | [52] 3.31 µM | [53] 4.23 µM | [55] 3.29 µM | [56] 15 µM | [57] 21.1 µM | [58] 14.1 µM | [59] 6.9 µM | [60] 8.87 µM | [61] 3.18 µM | [62] 7.31 µM | [63] 4.1 µM | [64] 12.3 µM | [65] 16.6 µM | [66] 28.8 µM | [67] 11.8 µM | [68] 7.6 µM | [69] 10 µM
3.68 µM: [27]

COC/C=C\COC
inactive: [1] > 100 µM | [2] > 100 µM | [3] > 100 µM | [5] > 100 µM | [7] > 100 µM | [8] > 100 µM | [9] > 100 µM | [10] > 100 µM | [11] > 100 µM | [12] > 100 µM | [13] > 100 µM | [14] > 100 µM | [15] > 100 µM | [16] > 100 µM | [17] > 100 µM | [18] > 100 µM | [19] > 100 µM | [20] > 100 µM | [21] > 100 µM | [22] > 100 µM | [24] > 100 µM | [25] > 100 µM | [26] > 100 µM | [28] > 100 µM | [29] > 100 µM | [32] > 100 µM | [34] > 100 µM | [35] > 100 µM | [40] > 100 µM | [41] > 100 µM | [42] > 100 µM | [43] > 100 µM | [44] > 100 µM | [45] > 100 µM | [46] > 100 µM | [47] > 100 µM | [49] > 100 µM | [50] > 100 µM | [51] > 100 µM | [52] > 100 µM | [55] > 100 µM | [56] > 100 µM | [57] > 100 µM | [59] > 100 µM | [60] > 100 µM | [61] > 100 µM | [62] > 100 µM | [63] > 100 µM | [64] > 100 µM | [66] > 100 µM | [68] > 100 µM | [69] > 100 µM
> 100 µM: [27]

NC(=O)C(=O)CC(=O)c1ccccc1NC1=CC(=O)C(=O)c2ccccc21
> 53.5 µM: [27]
inactive: [1] > 55 µM | [2] > 92.3 µM | [3] > 100 µM | [5] > 100 µM | [6] 30.2 µM | [7] 26.7 µM | [8] 48.2 µM | [9] 23.9 µM | [10] > 100 µM | [11] 29.3 µM | [12] > 87.9 µM | [13] 46.6 µM | [14] > 100 µM | [15] > 100 µM | [16] 14 µM | [17] 34.7 µM | [18] > 100 µM | [19] 51.6 µM | [20] 65.8 µM | [21] 43.8 µM | [22] > 100 µM | [24] 33.9 µM | [25] > 70 µM | [26] > 100 µM | [28] 40.6 µM | [29] 98.6 µM | [32] 19.2 µM | [34] > 100 µM | [35] > 100 µM | [40] > 40.6 µM | [41] > 51.1 µM | [42] > 68.5 µM | [43] 53.1 µM | [45] > 83.4 µM | [46] > 73.3 µM | [47] > 58.2 µM | [48] 31.2 µM | [49] > 88.3 µM | [50] > 100 µM | [51] 47 µM | [52] 54.3 µM | [55] 16.7 µM | [56] > 100 µM | [57] 58.6 µM | [58] > 100 µM | [59] 31.7 µM | [60] 50.6 µM | [61] > 100 µM | [62] 42.3 µM | [63] 53.1 µM | [64] > 61.1 µM | [65] > 100 µM | [66] > 100 µM | [67] > 40.8 µM | [68] 7.74 µM | [69] 22.6 µM
